Test system: 699152-130-R-J1-PDC complex spheroid growth
Test: Anticancer human tumor 699152-130-R-J1-PDC patient-derived pancreatic carcinoma cell line growth inhibition [AhR]
Conditions: for IC50: curve of first compound; for viability, T/C: stronger effect = lower value
Procedure, shortened: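 Agents were dosed in half-log steps down from roughly clinical Cmax, or from 10 microM where Cmax was unknown, alone and with AhR antagonists. Read-out: percent test/control growth of tumor spheroids containing HUVEC and MSC stromal cells.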

[1] = second compound 0.1 µM, first compound 0.0316 µM
[2] = second compound 0.1 µM, first compound 0.1 µM
[3] = second compound 0.1 µM, first compound 0.316 µM
[4] = second compound 0.1 µM, first compound 1 µM
[5] = second compound 0.1 µM, first compound 3.16 µM
[6] = second compound 0.1 µM, first compound 10 µM
[7] = second compound 0.316 µM, first compound 0.0316 µM
[8] = second compound 0.316 µM, first compound 0.1 µM
[9] = second compound 0.316 µM, first compound 0.316 µM
[10] = second compound 0.316 µM, first compound 1 µM
[11] = second compound 0.316 µM, first compound 3.16 µM
[12] = second compound 0.316 µM, first compound 10 µM
[13] = second compound 1 µM, first compound 0.0316 µM
[14] = second compound 1 µM, first compound 0.1 µM
[15] = second compound 1 µM, first compound 0.316 µM
[16] = second compound 1 µM, first compound 1 µM
[17] = second compound 1 µM, first compound 3.16 µM
[18] = second compound 1 µM, first compound 10 µM
[19] = second compound 3.16 µM, first compound 0.0316 µM
[20] = second compound 3.16 µM, first compound 0.1 µM
[21] = second compound 3.16 µM, first compound 0.316 µM
[22] = second compound 3.16 µM, first compound 1 µM
[23] = second compound 3.16 µM, first compound 3.16 µM
[24] = second compound 3.16 µM, first compound 10 µM
[25] = second compound 10 µM, first compound 0.0316 µM
[26] = second compound 10 µM, first compound 0.1 µM
[27] = second compound 10 µM, first compound 0.316 µM
[28] = second compound 10 µM, first compound 1 µM
[29] = second compound 10 µM, first compound 3.16 µM
[30] = second compound 10 µM, first compound 10 µM
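Note: compound exposure lasted 7 days after spheroids had grown for 3 days.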

Molecule `CC(C)c1c(-c2ccccc2)nc2c(C#N)c[nH]n2c1=O` + Cc1cncc(-c2nc(NCCc3c[nH]c4ccccc34)c3ncn(C(C)C)c3n2)c1 has an IC50 (second compound 0.1 µM) greater than 10 µM, an IC50 (second compound 0.316 µM) greater than 10 µM and an IC50 (second compound 1 µM) greater than 10 µM. The IC50 (second compound 3.16 µM) was greater than 10 µM, the IC50 (second compound 10 µM) was less than 0.0316 µM and the viability, T/C [1] was 98.9%. It also gave a viability, T/C [2] of 103%, a viability, T/C [3] of 101% and a viability, T/C [4] of 107%. The viability, T/C [5] was 107%, the viability, T/C [6] was 111% and the viability, T/C [7] was 104%. It also gave a viability, T/C [8] of 109%, a viability, T/C [9] of 101% and a viability, T/C [10] of 116%. The viability, T/C [11] was 96.4%, the viability, T/C [12] was 96.8% and the viability, T/C [13] was 118%. For the same molecule, the viability, T/C [14] was 118%, the viability, T/C [15] was 121% and the viability, T/C [16] was 125%. For the same molecule, the viability, T/C [17] was 108%, the viability, T/C [18] was 101% and the viability, T/C [19] was 60.4%. The viability, T/C [20] was 66.4%, the viability, T/C [21] was 65% and the viability, T/C [22] was 58.9%. The viability, T/C [23] was 58.2%, the viability, T/C [24] was 66.4% and the viability, T/C [25] was 4.82%. For the same molecule, the viability, T/C [26] was 4.89%, the viability, T/C [27] was 5.56% and the viability, T/C [28] was 4.11%. It also gave a viability, T/C [29] of 4.63% and a viability, T/C [30] of 6.54%.
Work on `COc1ccc([C@@H](O)c2cc(-c3ncnc4cc(N5CCOCC5)ccc34)c(F)cc2Cl)nn1` + Cc1cncc(-c2nc(NCCc3c[nH]c4ccccc34)c3ncn(C(C)C)c3n2)c1 yielded an IC50 (second compound 0.1 µM) of 6.29 µM, an IC50 (second compound 0.316 µM) of 5.2 µM and an IC50 (second compound 1 µM) of 7.45 µM. For the same molecule, the IC50 (second compound 3.16 µM) was 4.64 µM, the IC50 (second compound 10 µM) was less than 0.0316 µM and the viability, T/C [1] was 100%. The viability, T/C [2] was 104%, the viability, T/C [3] was 89.4% and the viability, T/C [4] was 78.9%. The viability, T/C [5] was 65.4%, the viability, T/C [6] was 40.1% and the viability, T/C [7] was 95%. For the same molecule, the viability, T/C [8] was 102%, the viability, T/C [9] was 89.2% and the viability, T/C [10] was 84.4%. It also gave a viability, T/C [11] of 59.7%, a viability, T/C [12] of 36.8% and a viability, T/C [13] of 104%. The viability, T/C [14] was 103%, the viability, T/C [15] was 109% and the viability, T/C [16] was 91%. It also gave a viability, T/C [17] of 76.2%, a viability, T/C [18] of 41.2% and a viability, T/C [19] of 55.6%. For the same molecule, the viability, T/C [20] was 66%, the viability, T/C [21] was 60.6% and the viability, T/C [22] was 59.8%. The viability, T/C [23] was 54.3%, the viability, T/C [24] was 40.2% and the viability, T/C [25] was 4.98%. It also gave a viability, T/C [26] of 5.41%, a viability, T/C [27] of 4.5% and a viability, T/C [28] of 6.28%. The viability, T/C [29] was 6.8% and the viability, T/C [30] was 9.11%.
